Assay [1] has as its system Mycobacterium tuberculosis. Kind of assay: Killing kinetics in vitro (7H9 broth OD600, CFU on 7H11 agar). The class given is cell-based. As for the experimental part:
Mycobacterium tuberculosis strains were obtained from the culture collection of the Mycobacteriology Laboratory, Mackay Memorial Hospital, Taipei, Taiwan. The organisms were cultured on Lowenstein-Jensen medium slant at 37° C. in a 10% CO2 humidified atmosphere. In mid-log phase, the colonies were harvested and resuspended with PBS. The turbidity of suspension was adjusted to a McFarland 0.5 standard, containing approximately 1×10^8 bacteria/ml.
Strains were grown in 7H9 medium and the turbidity of suspension was adjusted to a McFarland 0.5 standard and used as inocula after ten-fold dilution in 7H9 medium with or without various concentrations of EZETIMIBE. The kinetics of bactericidal effect of EZETIMIBE was estimated by measuring the optical density at 600 nm at the indicated time points, followed by plating for colony formation unit (CFU) enumeration on 7H11 agar plates.

In assay [2] the test system is M. tuberculosis internalization into monocytes. Kind of assay: Internalization of M. tuberculosis by monocytes (flow cytometry). The format is cell-based, Mycobacterium tuberculosis. As for the experimental part:
(§1) Peripheral blood mononuclear cells were isolated from whole blood by means of Ficoll-Paque gradient centrifugation. Monocytes were incubated with CD14 microbeads, after which the CD14-positive cells were separated out by a magnet. These cells were seeded in U-bottom 96-well plates at a density of 2×10^5 cells in a volume of 200 μl of PRMI-1640 medium with 10% FCS and cultured for 1 hour in the presence or absence of EZETIMIBE (resolved in alcohol). Next, 5×10^5 M. tuberculosis bacteria were added to each well, followed by incubation for 24 hours. Cell viability was tested by using trypan blue staining. In the post-treatment experiment, monocytes were infected with M. tuberculosis bacteria for 1 hour and then added with EZETIMIBE for another 24 hours. In the cholesterol supplement experiment, water soluble cholesterol (Sigma) was resolved in sterile deionized water and added into the culture medium with or without EZETIMIBE.
Infected monocytes described above receiving either EZETIMIBE or control were washed with PBS to remove unbound bacteria and fixed with 4% formalin for 24 hours at 4° C. Then cells were permeabilized by using permeabilization buffer and stained with fluorescein isothiocyanate-conjugated anti-M. tuberculosis antibody for 1 hour at 4° C. The fluorescence intensity of intracellular M. tuberculosis was than analyzed by flow cytometry. Stained cells were evaluated by FACS Calibur flow cytometer (BD Bioscience). Analysis was performed using CellQuest software (BD Bioscience).
As shown in FIGS. 2A-2D, the experiments were performed to assess whether the treatment of EZETIMIBE affected M. tuberculosis internalization into monocytes, and the monocytes were pretreated with EZETIMIBE for 24 hours or 48 hours.

In assay [3] the test system is intracellular M. tuberculosis in monocytes. The experiment in a line: Intracellular survival of M. tuberculosis in monocytes (CFU assay). The class given is cell-based, Mycobacterium tuberculosis.
In another assay the target is T1, CD13 (Homo sapiens, UniProt P15144).
T1 construct: whether the treatment of EZETIMIBE affected CD13 expression on monocytes; endogenous in cells; host or cells: monocytes
T1 sequence (P15144 whole entry): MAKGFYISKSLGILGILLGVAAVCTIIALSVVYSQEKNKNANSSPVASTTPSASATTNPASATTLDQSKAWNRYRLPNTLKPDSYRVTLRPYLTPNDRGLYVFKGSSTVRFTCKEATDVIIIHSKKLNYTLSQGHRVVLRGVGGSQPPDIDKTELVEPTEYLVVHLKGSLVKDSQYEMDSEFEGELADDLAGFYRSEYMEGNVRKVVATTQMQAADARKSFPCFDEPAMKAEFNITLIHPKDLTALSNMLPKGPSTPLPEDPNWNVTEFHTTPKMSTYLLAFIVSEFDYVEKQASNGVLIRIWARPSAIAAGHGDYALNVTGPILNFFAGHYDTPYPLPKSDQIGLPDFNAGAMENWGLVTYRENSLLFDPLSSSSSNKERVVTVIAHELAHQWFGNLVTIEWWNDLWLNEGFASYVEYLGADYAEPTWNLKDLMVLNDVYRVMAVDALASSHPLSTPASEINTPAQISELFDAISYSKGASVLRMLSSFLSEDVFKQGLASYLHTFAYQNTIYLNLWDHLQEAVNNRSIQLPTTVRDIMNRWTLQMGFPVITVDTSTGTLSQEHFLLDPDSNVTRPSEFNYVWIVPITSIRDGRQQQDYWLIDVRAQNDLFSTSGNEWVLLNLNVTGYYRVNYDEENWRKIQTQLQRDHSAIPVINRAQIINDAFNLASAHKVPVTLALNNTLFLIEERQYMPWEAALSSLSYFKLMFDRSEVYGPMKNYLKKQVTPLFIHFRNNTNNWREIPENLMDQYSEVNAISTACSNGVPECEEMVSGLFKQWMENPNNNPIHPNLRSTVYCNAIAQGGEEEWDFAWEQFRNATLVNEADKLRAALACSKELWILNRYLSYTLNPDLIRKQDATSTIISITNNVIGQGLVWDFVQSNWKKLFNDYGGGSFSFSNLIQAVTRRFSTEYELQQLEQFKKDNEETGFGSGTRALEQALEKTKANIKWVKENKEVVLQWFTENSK
Kind of assay: CD13 expression on monocytes (antiCD13 antibody staining). As to conditions: monocytes pretreated 24 or 48 hours, clones WM15 and WM47. The format is cell-based.

The test system of the next assay is monocytes. Kind of assay: Cholesterol uptake of monocytes (nile red staining, flow cytometry). The format is cell-based. As to conditions: cholesterol supplement 10 μg/ml. As for the experimental part: as §1
A stock solution of nile red (1 mg/ml) in acetone was prepared and stored at 4° C. and protected from light. The nile red solution was added to the cell preparation (final concentration: 1 μg/ml) for 10 minutes and excess dye was washed away with PBS. Nile red fluorescence was examined at two spectral settings, yellow-gold fluorescence (FL1 channel, excitation, 488 nm; emission, 530±30 nm) for cytoplasmic neutral lipids and red fluorescence (FL2 channel, excitation, 488 nm; emission, 585±21 nm) for polar lipids, consist of phospholipids, other amphipathic lipids, and strongly hydrophobic proteins of cell membranes as reported. Stained cells were evaluated by FACS Calibur flow cytometer (BD Bioscience). Analysis was performed using CellQuest software (BD Bioscience).
As shown in FIGS. 5A-B, monocytes were infected with M. tuberculosis bacteria followed by treatment with EZETIMIBE for 24 hours. Nile red staining was used to assess the intracellular lipid droplets by flow cytometry. Nile red fluorescence was examined at two spectral settings, yellow-gold fluorescence (FL1 channel, excitation, 488 nm; emission, 530±30 nm) for cytoplasmic neutral lipids, included triglyceride, cholesterol, cholesterol esters and free fatty acid, and red fluorescence (FL2 channel, excitation, 488 nm; emission, 585±21 nm) for polar lipids. Significant increase fluorescence intensity of FL1 channel not FL2 channel was observed following cholesterol supplement (10 μg/ml) in monocytes culture without infection, and EZETIMIBE (10 μg/ml and 20 μg/ml) can inhibit the uptake of cholesterol by reducing the relative fluorescence of FL1 channel from 1.5 to 1.2 and 1.3, respectively.

Assay [4] has as its system intracellular M. tuberculosis in monocytes. The experiment in a line: Intracellular survival of M. tuberculosis in monocytes with cholesterol supplement (CFU assay). The class given is cell-based, Mycobacterium tuberculosis. Particulars: post-treatment 24 hours.

The record followed here is patent US8455474B2, “Method for treating tuberculosis” (Mackay Memorial Hospital, priority 2011, dated 2013).

On to `O=C1[C@H](CC[C@H](O)c2ccc(F)cc2)[C@@H](c2ccc(O)cc2)N1c1ccc(F)cc1` [EZETIMIBE, (3R,4S)-1-(4-fluorophenyl)-3-[(3S)-3-(4-fluorophenyl)-3-hydroxypropyl]-4-(4-hydroxyphenyl)zetidin-2-one], for which the “colony-forming units (CFU) of Mycobacterium tuberculosis on 7H11 agar plate” value in assay [1] (15 and 30 μg/ml for 72 hours, read at 3rd week (FIG. 1C)) is on record as “significantly reduced”. Moreover, in assay [1] (FIG. 1B), the “M. tuberculosis survival in suspension with increasing amount of bacteria” value is given as “inhibition on M. tuberculosis survival was found”. The “growth of Mycobacterium tuberculosis in 7H9 broth” value in assay [1] (increasing concentrations, 2nd and 3rd week (FIG. 1A)) is listed as “inhibition effect on growth”. Besides, the “entry reduction of M. tuberculosis into monocytes” value in assay [2] (post-treatment of monocytes, 24 hours) is “up to 0.65%”; in assay [2] (post-treatment of monocytes, 48 hours) it was at most 26.02%; in assay [2] (pre-treatment of monocytes, 48 hours), “up to 18.28%”. Besides, the CFU counts is recorded as 4090 per 10,000 cells in assay [3] (post-treatment: infection 1 hour then 10 ng/ml for 24 hours, without drug 8320); 2858 per 10,000 cells in assay [3] (post-treatment: infection 1 hour then 20 ng/ml for 24 hours, without drug 8320); 5880 per 10,000 cells in assay [3] (pre-treatment 1 hour then infection 24 hours, 10 ng/ml, without drug 7358); 4000 per 10,000 cells in assay [3] (pre-treatment 1 hour then infection 24 hours, 20 ng/ml, without drug 7358); 7692 per 10,000 cells in assay [4] (EZETIMIBE 10 μg/ml, cholesterol supplement 10 μg/ml, without drug 10600); 12545 per 10,000 cells in assay [4] (EZETIMIBE 10 μg/ml, cholesterol supplement 20 μg/ml). In addition, the CFU counts in assay [4] (EZETIMIBE 20 μg/ml, cholesterol supplement 10 μg/ml, without drug 10600) is on record as 4800 per 10,000 cells; in assay [4] (EZETIMIBE 20 μg/ml, cholesterol supplement 20 μg/ml), 10333 per 10,000 cells. At CD13, the “CD13 expression on monocytes” value was “down-regulation of CD13 expression”. For the same compound, the “relative fluorescence of FL1 channel (nile red, neutral lipids)” value in the assay with monocytes (M. tuberculosis infected monocytes, 24 hours, EZETIMIBE 10 μg/ml, without drug 1.4) came out at 0.9; in the assay on monocytes (M. tuberculosis infected monocytes, 24 hours, EZETIMIBE 20 μg/ml, without drug 1.4), 1.0; with monocytes (monocytes without infection, EZETIMIBE 10 μg/ml, without drug 1.5), 1.2; in the assay with monocytes (monocytes without infection, EZETIMIBE 20 μg/ml, without drug 1.5), 1.3.
